From a melting point compilation (Tetko et al.; mined from patent text by program, amines drawn as free bases though some values may be those of a salt)

Row | Compound | melting point [°C]
1 | CC(C)(C)OC(=O)N1CCN(c2ccc(NC(=O)Nc3cc(Cl)ccc3N)cc2)CC1 | 187 to 189
2 | O=C(c1cccnc1)N1CC2CSc3ccccc3C2=N1 (stereo not given) | 173 to 175
3 | CCOC(=O)C(C#N)=NC=C(N)c1ccccc1 | 139 to 140
4 | CCc1nc2c(N)nc3cc(OCC(=O)c4ccsc4)ccc3c2s1 | 202 to 203
5 | CCCCCC(=O)c1ccc(O)c(C(=O)O)c1 | 48 to 49
6 | CCOC(=O)C1=C(COCCN=[N+]=[N-])NC(C)=C(C(=O)OC)C1c1ccccc1Cl (stereo not given) | 145 to 146
7 | CCN(C)c1nc2cc(NC(=O)c3c(C(=O)N4CCC4)cnn3C)ccn2n1 | 229 to 232
8 | COc1cc(C=CN(C)C)ccc1[N+](=O)[O-] | 57 to 58.5
9 | O=C(O)c1ccc(C#Cc2ccc(OCC(O)CO)c(C34CC5CC(CC(C5)C3)C4)c2)cc1 (stereo not given) | 300 to 302
10 | O=C1NCCN1CCN1CCC(c2cn(-c3ccc(F)cc3)c3ccc(O)cc23)CC1 | 220
11 | CCC1C(C)=NN=C(c2ccc(OC)c(OC)c2)c2cc(OC)c(OCCCN(C)C)cc21 (stereo not given) | 126 to 128
12 | ClCCOc1ccccc1OCCCl | 55 to 56.5
13 | CC(C)(C)OC(=O)N1CCOc2ccc(O)cc2S1(=O)=O | 143
14 | CC(c1ccccc1)c1ccc(N)c([N+](=O)[O-])c1 (stereo not given) | 96 to 98
15 | Cc1nn(C)c(C)c1-c1cncc(OC2SCC(O)C(O)C2O)c1 (stereo not given) | 174
16 | C#Cc1ccc(Nc2c(C(=O)c3nccs3)ccc(F)c2F)c(F)c1 | 161
17 | CCN1Cc2nc(CO)cn2-c2ccccc21 | 160 to 165
18 | CCCOc1ccc(S(C)(=O)=O)cc1-c1nc2c(CC)n[nH]c2c(=O)[nH]1 | 276 to 277
19 | Cc1cc(CSCCC(=C(N)NCC(O)c2ccccc2)[N+](=O)[O-])sc1CN(C)C (stereo not given) | 114 to 115
20 | O=C(O)C(Cc1ccc(C(F)(F)F)cc1Br)C(=O)O | 80 to 82
21 | Cc1cc(C)n(-c2nnc(-c3ccc(Cl)cc3)c(C)n2)n1 | 151 to 152
22 | Cn1ncc2c1CS(=O)c1cn[nH]c1-2 (stereo not given) | > 270

Row | Compound | melting point [°C]
23 | COc1cc2ncnc(N3CCCc4ccccc43)c2cc1OC | 130 to 131
24 | CC(C)(C)c1cccc(C(=O)O)c1 | 96 to 97
25 | CCCCn1nnc2cc(C(O)c3ccsc3)ccc21 (stereo not given) | 80
26 | NC1=Nc2ccc(I)cc2C(c2ccccn2)=NC1 | 228 to 229
27 | CCn1cc(C(=O)O)c(=O)c2cc(F)c(N3CCN(C)C(c4ccc(C)s4)C3)cc21 (stereo not given) | 224
28 | Nc1ccc(CS(=O)(=O)CCO)c(CS(=O)(=O)CCO)c1 | 168 to 171
29 | CC(=O)N1CCC(=C2c3ccc(Cl)cc3CCc3cccnc32)CC1 | 155 to 157
30 | CNc1cc(Br)nc(S(=O)(=O)c2ccc([N+](=O)[O-])cc2)c1 | 191 to 192
31 | CC(C)=CCN1CCn2c(=O)[nH]c3cc(Cl)cc(c32)C1C (stereo not given) | 139
32 | CCOc1nc2cc(C)nn2c2cc(Cl)ncc12 | 176
33 | COC(=O)c1ncccc1NC(=O)C(C)CS (stereo not given) | 55 to 56
34 | Brc1ccc2c(c1-c1c(Br)ccc3c1CCCC3)CCCC2 | 146 to 147
35 | CC(C)(C)c1ncncc1C(=O)c1ccc(Cl)cc1 | 75 to 77
36 | O=c1[nH]c2cc(Cl)ccc2c(O)c1-c1cccc(I)c1 | > 350
37 | CC(C)c1c[nH]c(=O)[nH]c1=O | 284 to 286
38 | O=C(O)C(Cl)(Cl)CCCCCCCCCCOc1ccc(Cl)cc1 | 63 to 64
39 | N#Cc1ccc(/C=C/C=C/C=O)c(F)c1 | 174 to 177
40 | CS(=O)(=O)Nc1ccc(Cl)c([N+](=O)[O-])c1 | 163
41 | CC(C)(C)c1cc(CN(c2cccnc2)S(=O)(=O)c2cccc([N+](=O)[O-])c2)cc(C(C)(C)C)c1O | 99 to 107
42 | COc1cc(OC)c2c(=O)cc(-c3ccccc3Cl)oc2c1C1CCN(C)C1C(=O)O (stereo not given) | 165 to 167
43 | Clc1ccc(-c2nc(Cl)cc(Cl)n2)cc1 | 120 to 121
44 | CN1CCN(c2nn(-c3ccc(Cl)cc3Cl)c3ccccc23)CC1 | 150 to 152

Row | Compound | melting point [°C]
45 | CCOC(=O)Nc1ccc2c(c1)CC[C@H](CCC(F)(F)F)O2 | 88
46 | CCCCCCCCCCCCNC(=O)Nc1sc(C(=O)O)c(C)c1C(=O)OC(C)(C)C | 187 to 188
47 | CCCCCCCCCCCCCCCCOC(=O)Nc1ccc(NC(=O)NS(=O)(=O)c2ccc(OC)cc2)cc1 | 185
48 | O=C(O)CN1C(=O)COc2cc(F)ccc21 | 183 to 184
49 | CCOc1cc(C)c(NCCO)cc1[N+](=O)[O-] | 119
50 | c1cc(C2=NOCCS2)ccn1 | 80 to 82
51 | CNc1cc(F)ccc1C(=O)CS(=O)(=O)N(C)C | 120 to 124
52 | O=C(O)c1cnn(-c2ccc(Cl)cc2)c1C1CC1 | 186 to 187
53 | CCOC(=O)CNc1ncccc1[N+](=O)[O-] | 38 to 39
54 | CCCOc1ccc(S(=O)(=O)N2CCN(C)CC2)cc1-c1nc2cc(N)c([N+](=O)[O-])cc2c(=O)[nH]1 | 270 to 271
55 | COC1=CC(C)=NN(NC(=O)N=NS(=O)(=O)C2SCCN2OCC=CCl)N1 (stereo not given) | 145 to 147
56 | CC(=O)NC1CSc2ccccc2NC1=O (stereo not given) | 283 to 286
57 | C=CCOC(=O)Nc1cc(C(C)(C)C)[nH]n1 | 131 to 132
58 | CCCn1c(CCOC)nc2c(N)nc3cc(OC4CCN(C(=O)C(C)C)CC4)ccc3c21 | 165 to 166
59 | CCC(=O)Oc1cc2c(s1)CCN(C(C(=O)C1CC1)c1ccccc1F)C2 (stereo not given) | 101 to 102
60 | N#Cc1ccc2c(c1)CS(=O)(=O)NN=C2c1ccc(F)cc1 | 218 to 219
61 | CN1CCCCC1CNC(=O)Nc1cc(OCC(F)(F)F)ccc1OCC(F)(F)F (stereo not given) | 123 to 126
62 | CSc1nn2c(N(C)C)cc(C)nc2c1S(=O)(=O)c1ccc(Cl)cc1 | 221 to 223
63 | C[C@@H](O)Cn1ncc2ccc(O)c(Br)c21 | 134 to 136
64 | CCCCCCCCCCCCCCc1cccc(O)c1 | 38 to 40

Second part, the compound after the results:

Row | melting point [°C] | Compound
65 | 183 to 184 | O=C1[C@H]2CCC[C@H]2N(C(=O)Cn2ccnc2)c2ccccc2N1Cc1ccccc1 (relative stereo)
66 | 130 | CCOC(=O)c1c(N2CCN(C(=O)c3cccs3)CC2)c2cc(F)cnc2n(Cc2ccccc2)c1=O
67 | 66 to 67 | CC(=O)/C=C(\C)c1ccc(-c2ccccc2)c(Cl)c1
68 | 73 to 77 | COC(=O)N(c1ccccn1)C(C(=O)NC(Cc1ccccc1)C(O)CN1C2CCC(C2)N1C(=O)OC(C)(C)C)C(C)C (mixture of isomers)
69 | 95 to 96 | COc1ccc(OC)c(Nc2c(-c3ccc(S(C)(=O)=O)cc3)cnn(CC(F)(F)F)c2=O)c1
70 | 128 to 130 | Cc1c(F)cccc1NS(=O)(=O)c1cc(S(=O)(=O)Nc2cccc(F)c2C)c2cc(O)ccc2c1
71 | 139 to 143 | O=C1CN(NC(=O)NC(C(=O)O)c2ccccc2)C(=O)N1 (stereo not given)
72 | 262 to 263 | O=C(N[C@@H](Cc1ccc(OCc2ccccc2)cc1)C(=O)O)c1cn2cc(/C=C/c3ccccc3)ccc2n1
73 | 120 to 121 | COC(=O)c1ccc2cc(CO)ccc2c1
74 | 128 to 129 | COc1ccc(-c2cc(=O)n(C(C)C)nc2-c2ccc(OC)cc2)cc1
75 | 166 to 168 | O=C(O)c1ccc(NC(=O)C(CS)Cc2ccccc2)cc1 (stereo not given)
76 | 88 | COC(=O)c1cc(C(=O)c2ccccc2)ccc1OC
77 | 216 to 218 | c1cc(-c2cncnc2)cc(-n2cnc3cc(-c4ccoc4)ccc32)c1
78 | 135 to 136 | O=C(O)c1c(CN2CCC(c3ccccc3)(c3ccccc3)CC2)ncn1Cc1ccc(Cl)cc1
79 | 210 to 212 | O=C(CN1CCC(Cc2ccccc2)CC1)Nc1ccc2[nH]c(=O)oc2c1
80 | 94 to 95 | O=C(O)CCc1cccc(OCc2cn(-c3ccc(C(F)(F)F)cn3)nc2C2CCCCC2)c1
81 | 150 to 151 | CCOc1nn(-c2ccc(C(F)(F)F)cn2)cc1CCCOc1cccc(OC)c1CC(=O)O
82 | 155 to 156 | CC(C)n1cc(-c2ccc(Oc3ccccc3)cc2)c2c(N)ncnc21

Row | melting point [°C] | Compound
83 | 150 to 152 | Cc1nn(C)c(OCC(=O)c2ccccc2)c1C(=O)c1ccc(Cl)c(C)c1Cl
84 | 180 to 182 | COC(=O)c1ccc(N=C(Nc2ccc(C(=O)OC)cc2)c2ccccc2)cc1
85 | 138 to 140 | COc1cc(N)c(Cl)cc1C(=O)NCC1CCN(CCCCCNC(=O)c2ccccc2)CC1
86 | 184 to 185 | O=S(=O)(NCc1ccnc2c(Cl)cccc12)c1ccc(-c2ccc(C(F)(F)F)cc2C(F)(F)F)cc1
87 | 138 to 140 | CCCOc1cccc(-c2nc(=O)c3ccccc3s2)n1
88 | 99 to 102 | COC(=O)COc1cccc2c1cc(C)n2Cc1cccc(-c2ccccc2)c1
89 | 95 to 97 | O=C(c1ccccn1)c1csc(-c2ccccc2)n1
90 | 229 to 231 | c1ccc(COc2ccc(Cc3nnc(Nc4ccc5c(c4)ncn5-c4ccccc4)c4ccccc34)cc2)cc1
91 | 108 to 110 | COc1ccc(SCCSc2ccc(OC)cc2)cc1
92 | 70 to 72 | O=C(c1ccnc(Cl)c1)N1CC(c2ccc(F)cc2)C2(CCN(Cc3ccccc3)CC2)C1 (stereo not given)
93 | 101 to 102 | CCOC(=O)c1cccc(-c2nccc(OCCc3ccc(OC)c(OC)c3)n2)c1
94 | 91 to 94 | COc1ccc(CCCC(CCc2ccc(OC)cc2)C(=O)O)cc1 (stereo not given)
95 | 141 to 144 | CC(COc1ccc(-c2ccc(C#N)cc2)cc1)N(O)C=O (stereo not given)
96 | 107 to 109 | COc1cc(C)c(C=O)cc1OCc1ccccc1
97 | 143 to 145 | CCc1[nH]n(C2CCCC2)c2nc(Cc3ccc(OC(=O)c4ccc(CN(CC)CC)cc4)cc3)nc(=O)c1-2
98 | 176 to 177 | O=C(CCCCC(=O)Oc1ccc(N=Nc2ccccc2)cc1)Oc1ccc(N=Nc2ccccc2)cc1
99 | 85 to 93 | COC(=O)c1ccc(CSCC(=O)[C@H](Cc2ccccc2)NC(=O)[C@H](CC(C)C)NC(=O)OCc2ccccc2)o1
100 | 265 to 266 | O=C(Nc1cnc2c(c1)OCCN2)c1cc2cc(F)ccc2n1Cc1cccc(F)c1
